Measured values: patent US20230303613A1, “3′3′ CYCLIC DINUCLEOTIDES WITH AN ALKENYLENE” (Institute of Organic Chemistry and Biochemistry AS CR, v.v.i, priority 2020, published 2023)
Where two headings read alike, the source gives them in different places.

What was measured:
WT STING [1] = molecular target: T1, WT STING (Homo sapiens, UniProt Q86WV6, H232R); test: Differential Scanning Fluorimetry with WT STING; format: binding; parameters: 8xHis (N, cleaved yes); SUMO (N, cleaved yes); made in house; host or cells: E. coli Rosetta-gami B (DE3); details: thermal shift vs apoprotein, 150 µM CDN, truncated human WT STING 0.1 mg/ml; for ΔTm at 150 µM: read-out: DSF ΔTm WT STING
Description: (§1) Purified PCR products were cleaved with restriction enzymes BamHI (cat. # R0136S, NEB, Ipswich, USA) and NotI (cat. # R0189S, NEB, Ipswich, USA) and cloned into the pSUMO vector linearized with the identical enzymes.
(§2) Bacterial pellets were re-suspended in ice-cold lysis buffer containing 50 mmol.1^-1 TrisCl (cat. # T1503, Sigma Aldrich, Czech Republic) pH 8.0, 300 mmol.1^-1 NaCl, 3 mmol.1^-1 β-mercaptoethanol (cat. # M6250, Sigma Aldrich, Czech Republic), 10% glycerol (cat. # G5516, Sigma Aldrich, Czech Republic) and 20 mmol.1^-1 imidazole (cat. # I5513, Sigma Aldrich, Czech Republic) using Dounce homogenizer. DNase I (cat. # D5025, Sigma Aldrich, Czech Republic) and RNase A (cat. # R6513, Sigma Aldrich, Czech Republic) were added (final concentration 50 µg/ml) together with MgCl2 (final concentration 5 mmol.l^-1) to the homogenate and bacteria were lysed using French Press G-M™ High-Pressure Cell Press Homogenizer (1500 psi, 3 cycles). […] The resin was poured into a chromatography column, washed with 50 ml buffer A (50 mmol.1^-1 TrisCl (pH 8.0), 800 mmol.1^-1 NaCl, 3 mmol.1^-1 β-mercaptol; 10% glycerol; 20 mmol.1^-1 imidazole) and 8-His-SUMO tagged STING proteins were eluted with 15 ml buffer A containing 300 mmol.1^-1 imidazole. […] Proteins were concentrated with Amicon® Ultra-15 10 K device (cat. # UFC901008, Merck Millipore, Billerica, USA) and flash frozen in liquid N2.
(§3) 20 µL solutions of the reaction mixtures were pipetted in triplicates into 96 well optical reaction plates and thermal denaturation of samples were performed on real time PCR cycler (LightCycler® 480 Instrument II - Roche, Basel, Switzerland). The first derivative of the thermal denaturation curves was performed to calculate denaturing temperatures of STING - CDN complexes and STING apoproteins. The thermal shift for each CDN was calculated by subtracting the average denaturing temperature of STING apoprotein from the average denaturing temperature of STING CDN complex.
Target sequence in this assay (Q86WV6 140-343 H232R): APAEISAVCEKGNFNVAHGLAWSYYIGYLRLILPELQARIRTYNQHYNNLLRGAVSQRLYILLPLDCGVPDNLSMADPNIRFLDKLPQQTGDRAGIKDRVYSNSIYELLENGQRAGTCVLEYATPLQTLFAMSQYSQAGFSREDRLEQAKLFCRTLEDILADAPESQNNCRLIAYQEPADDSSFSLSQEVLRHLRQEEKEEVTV

AQ STING (G230A-R293Q) = molecular target: T2, AQ STING (G230A-R293Q) (Homo sapiens, UniProt Q86WV6, G230A/H232R/R293Q); test: Differential Scanning Fluorimetry with AQ STING; format: binding; details: thermal shift vs apoprotein, 150 µM CDN, truncated human AQ STING 0.1 mg/ml; for ΔTm at 150 µM: read-out: DSF ΔTm AQ STING
T2 construct: 8xHis (N, cleaved yes); SUMO (N, cleaved yes); made in house; host or cells: E. coli Rosetta-gami B (DE3)
T2 sequence (Q86WV6 140-343 G230A/H232R/R293Q): as the sequence (Q86WV6 140-343 H232R) above, with G91A, R154Q counted along it
Description: as §1, §2, §3

WT STING [2] = molecular target: T1, WT STING; test: Digitonin assay using 293T wtSTING-FL reporter cells; format: cell-based; details: 293T wtSTING-FL cells; 30 minutes in Digitonin buffer, then 5 hours; ISRE firefly luciferase reporter
Description: (§4) Two complementary oligonucleotides of the sequence […] […] […] […] […] The oligonucleotides were mixed in equal molar amounts, hybridized, and cleaved by restriction endonucleases HindIII (cat. #. R0104S, NEB, Ipswich, USA) and BglII (cat. # R0144S, NEB, Ipswich, USA). Ultimately, they were ligated into plasmid pGL4.27 (cat. # E6651, Promega, Madison, USA) linearized with the same enzymes. As result the sequence with four ISRE sites was placed upstream of the minimum promoter of firefly luciferase reporter gene.
(§5) After 5 minutes incubation at room temperature (RT), 250 µL of the mixture was added dropwise to the cells in one well. Cells were incubated 36 hours at 37° C. with 5% CO2, and then detached with 0.05% Trypsin and 0.22 g/L EDTA (both cat. # L0941, Biowest, Riverside, USA).
(§6) Transfected cells were seeded onto poly-D-lysine coated six well plates at density 50,000 cells per 1 cm^2 in DMEM medium with high glucose containing 10% heat inactivated FBS, 30 µg/mL blasticidin (cat. # ant-bl-05, InvivoGen, San Diego, USA), 0.06 mg/ml Penicillin G and 0.1 mg/ml Streptomycin Sulfate (both cat. #. L0018, Biowest, Riverside, USA). The medium was replenished every 3 - 4 days until visible colonies of cells resistant to blasticidin were formed.
(§7) Blasticidin resistant cells stably expressing WT STING were further transfected with […] plasmid following the same procedure as described above. […] Homogeneous culture of stably double transfected cells was prepared by limiting dilution of cells in 96 well plates and wells with cells were selected that originated from a single cell.
The medium was removed next day and three fold serial dilutions of compounds in Digitonin buffer containing 50 mmol.l^-1 HEPES (cat. # H3375, Sigma Aldrich, Czech Republic) pH 7.0, 100 mmol.1^-1 KCl, 3 mmol.l^-1 MgCl2, 0.1 mmol.l^-1 DTT (cat. # D0632, Sigma Aldrich, Czech Republic), 85 mmol.1^-1 Sucrose (cat. # S7903, Sigma Aldrich, Czech Republic), 0.2% BSA (cat. # A2153, Sigma Aldrich, Czech Republic), 1 mmol.l^-1 ATP (cat. # A1852, Sigma Aldrich, Czech Republic), 0.1 mmol.1^-1 GTP (cat. # G8877, Sigma Aldrich, Czech Republic), and 10 µg/mL Digitonin A (cat. # D141, Sigma Aldrich, Czech Republic) were added to the cells. The buffer was removed after 30 minutes incubation at 37° C. with 5% CO2, the cells were washed once with 100 µl of cultivation medium, and 100 µl of medium was added to each well. The plates with cells were incubated for 5 hours at 37° C. with 5% CO2, 50µl of the medium was removed and 30 µl of ONE-Glo^Tm Luciferase Assay System reagent (cat. # E6120, Promega, Madison, USA) was added to each well. Luminescence was read on Synergy H1 (Biotek, Winooski, USA).
Target sequence in this assay (Q86WV6 whole entry H232R, the tested form may be a part): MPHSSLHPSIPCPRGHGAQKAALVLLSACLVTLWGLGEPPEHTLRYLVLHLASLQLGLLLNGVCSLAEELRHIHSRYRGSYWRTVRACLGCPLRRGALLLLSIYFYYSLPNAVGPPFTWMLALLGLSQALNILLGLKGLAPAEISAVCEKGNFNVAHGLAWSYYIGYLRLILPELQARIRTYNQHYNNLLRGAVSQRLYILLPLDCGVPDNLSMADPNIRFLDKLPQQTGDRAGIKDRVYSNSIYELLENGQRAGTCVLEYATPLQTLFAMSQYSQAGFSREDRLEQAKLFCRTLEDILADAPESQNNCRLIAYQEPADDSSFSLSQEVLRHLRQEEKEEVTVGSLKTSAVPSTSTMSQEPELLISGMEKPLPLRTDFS

WT STING [3] = molecular target: T1, WT STING; test: 293T WT STING standard reporter assay; format: cell-based; details: 293T wtSTING-FL cells; 7 hours with compound, no digitonin; ISRE firefly luciferase reporter
Description: as §4, §5, §6, §7
Target sequence in this assay (Q86WV6 whole entry H232R, the tested form may be a part): as above
The medium was removed next day and three-fold serial dilutions of compounds in 100 µl medium were added to the cells. The plates with cells were incubated for 7 hours at 37° C. with 5% CO2. After 50 µl of the medium was removed, 30 µl of ONE-Glo^Tm Luciferase Assay System reagent (cat. # E6120, Promega, Madison, USA) was added to each well and luminescence was read on Synergy H1 (Biotek, Winooski, USA).

[4] = test system: peripheral blood mononuclear cell (PBMC); test: Peripheral blood mononuclear cell assay; format: cell-based; details: 1h with compound, washed, 15 hour incubation
Description: Selected compounds were tested in an in vitro peripheral blood mononuclear cell (PBMC) assay. Freshly isolated PBMCs were seeded into U-shaped shaped 96-well plates at desity 500,000 cells per well in 50 µl of RPMI 1640 medium supplemented with 10% heat inactivated FBS. Serially dilluted tested compounds were added to wells in 50 µl of cultivation medium and cell were incubated with compounds for 1h at 37° C. with 5% CO2. Plates with cells were then spun 500 g for 5 minutes and medium was removed. Cells were washed twice with the cell culture medium by the use of centrifugation and gently resuspended in 100 µl medium without compounds. After 15 hour incubation at 37° C. with 5% CO2, the cell culture medium was collected and the levels of interferon-alpha (INF-α), interferon-gamma (INF-γ) and tumor necrosis factor-alpha (TNF-α) were determined with ProcartaPlex Assays (ThermoFisher, Waltham, USA) and MAGPIX System (Merck KGaA, Darmstadt, Germany).

SMILES	EC50 (WT STING [2])	ΔTm at 150 µM (WT STING [1])	ΔTm at 150 µM (AQ STING (G230A-R293Q))	EC50 (WT STING [3])	further results
Nc1nc2c(ncn2[C@@H]2O[C@@H]3COP(=O)(O)O[C@H]4[C@@H](O)[C@H](n5cnc6c(=O)[nH]c(N)nc65)O[C@@H]4COP(=O)(O)O[C@H]3[C@H]2O)c(=O)[nH]1 [3′3′c-di-GMP, 3′3′-c-di-GMP, reference compound]	5800 nM				DSF ΔTm WT STING (WT STING [1]): 2.6 °C; DSF ΔTm AQ STING (AQ STING (G230A-R293Q)): 7.7 °C
Nc1nc2c(ncn2[C@@H]2O[C@@H]3/C=C\P(=O)(O)O[C@H]4C[C@H](n5cnc6c(N)nc(F)nc65)O[C@@H]4COP(=O)(O)O[C@H]3[C@H]2O)c(=O)[nH]1 [Compound 66, (1S,6R,8R,10S,13Z,15R,17R,18R)-8-(6-amino-2-fluoro-9H-purin-9-yl)-17-(2-amino-6-oxo-6,9-dihydro-1H-purin-9-yl)-3,12,18-trihydroxy-2,4,7,11,16-pentaoxa-3λ^5,12λ^5-diphosphatricyclo[13.3.0.0^6,^10]octadec-13-ene-3,12-dione]	15000 nM	0.5 °C	1.7 °C		
CCC(C)(C)C(=O)OCOP1(=O)/C=C/[C@H]2O[C@@H](n3cnc4c(N)ncnc43)[C@H](F)[C@@H]2OP(=O)(OCOC(=O)C(C)(C)CC)OC[C@H]2O[C@@H](n3cnc4c(N)ncnc43)[C@H](F)[C@@H]2O1 (single isomer, unassigned) [Compound 84c]				0.007 µM	EC50 ([4]; IFN-α level in medium, read-out: PBMC EC50 IFN-α): 0.03 µM; EC50 ([4]; TNF-α level in medium, read-out: PBMC EC50 TNF-α): 0.01 µM

More lines, main results first:

EC50 (WT STING [2])	ΔTm at 150 µM (WT STING [1])	ΔTm at 150 µM (AQ STING (G230A-R293Q))	EC50 (WT STING [3])	SMILES	further results
5000 nM	3.1 °C	8 °C		Nc1nc(N)c2ncn([C@@H]3O[C@@H]4COP(=O)(O)O[C@H]5[C@@H](O)[C@H](n6cnc7c(=O)[nH]c(N)nc76)O[C@@H]5/C=C\P(=O)(O)O[C@H]4[C@H]3F)c2n1 [Compound 65, (1S,6R,8R,9R,10R,13Z,15R,17R,18R)-17-(2-amino-6-oxo-6,9-dihydro-1H-purin-9-yl)-8-(2,6-diamino-9H-purin-9-yl)-9-fluoro-3,12,18-trihydroxy-2,4,7,11,16-pentaoxa-3λ^5,12λ^5-diphosphatricyclo[13.3.0.0^6,^10]octadec-13-ene-3,12-dione]	
20 nM	9.2 °C	15 °C		Nc1nc2c(ncn2[C@@H]2O[C@@H]3/C=C/P(=O)(O)O[C@H]4[C@@H](F)[C@H](n5cnc6c(N)ncnc65)O[C@@H]4COP(=O)(O)O[C@H]3[C@H]2F)c(=O)[nH]1 [Compound 54, (1R,6R,8R,9R,10R,13E,15R,17R,18R)-17-(2-amino-6-oxo-6,9-dihydro-1H-purin-9-yl)-8-(6-amino-9H-purin-9-yl)-9,18-difluoro-3,12-dihydroxy-2,4,7,11,16-pentaoxa-3λ^5,12λ^5-diphosphatricycl [13.3.0.0^6,^10]octadec-13-ene-3,12-dione]	
750 nM			> 200 µM	Nc1ncnc2c1ncn2[C@@H]1O[C@@H]2COP(=O)(O)O[C@H]3C[C@H](n4cnc5c(N)ncnc54)O[C@@H]3/C=C/P(=O)(O)O[C@H]2[C@H]1F [Compound 61, (1S,6R,8R,9R,10R,13E,15R,17R)-8,17-bis(6-amino-9H-purin-9-yl)-9-fluoro-3,12-dihydroxy-2,4,7,11,16-pentaoxa-3λ^5,12λ^5-diphosphatricyclo[13.3.0.0^6,10]octadec-13-ene-3,12-dione]	
700 nM				Nc1nc2c(ncn2[C@@H]2O[C@@H]3COP(=O)(O)O[C@H]4C[C@H](n5cnc6c(N)ncnc65)O[C@@H]4/C=C/P(=O)(O)O[C@H]3[C@H]2F)c(=O)[nH]1 [Compound 59, (1S,6R,8R,9R,10R,13E,15R,17R)-8-(2-amino-6-oxo-6,9-dihydro-1H-purin-9-yl)-17-(6-amino-9H-purin-9-yl)-9-fluoro-3,12-dihydroxy-2,4,7,11,16-pentaoxa-3λ^5, 12λ^5-diphosphatricyclo[13.3.0.0^6,^10]octadec-13-ene-3,12-dione]	
280 nM			71.8 µM	Nc1ncnc2c1ncn2[C@@H]1O[C@@H]2/C=C/P(=O)(O)O[C@H]3C[C@H](n4cnc5c(N)ncnc54)O[C@@H]3COP(=O)(O)O[C@H]2[C@H]1F [Compound 60, (1R,6R,8R,10S,13E,15R,17R,18R)-8,17-bis(6-amino-9H-purin-9-yl)-18-fluoro-3,12-dihydroxy-2,4,7,11,16-pentaoxa-3λ^5,12λ^5-diphosphatricyclo[13.3.0.0^6,^10]octadec-13-ene-3,12-dione]	EC50 ([4]; PBMC, IFN-α level in medium, read-out: PBMC EC50 IFN-α): > 500 µM; EC50 ([4]; PBMC, IFN-γ level in medium, read-out: PBMC EC50 IFN-γ): 164 µM; EC50 ([4]; PBMC, TNF-α level in medium, read-out: PBMC EC50 TNF-α): 100 µM
